Test [1] deals with histamine receptor H1 (Homo sapiens, UniProt P35367). Put plainly: Histamine H1 radioligand binding ([3H]Pyrilamine). The following applies: for inhibition at 1 µM: read-out: Histamine Binding (1 μM) H1, percent inhibition of specific binding, 1 μM. In a few lines: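 Values are percent inhibition of specific [3H]pyrilamine (1.2 nM) binding with compounds at ≤1 μM (1% DMSO vehicle); 180 min incubation at 25 °C, pH 7.4 Tris buffer, on CHO-expressed human H1 receptor; 1 μM pyrilamine defined nonspecific binding, bound ligand counted after filtration.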

Test [2] addresses T1, human recombinant histamine H2 receptor (Homo sapiens, UniProt P25021).
T1 construct: expressed in transfected cells; host or cells: Chinese hamster ovary (CHO) K1 cells
Put plainly: Histamine H2 radioligand binding ([125I]Aminopotentidine). To be noted: read-out: Histamine Binding (1 μM) H2, percent inhibition of specific binding, 1 μM. In short, it runs like this:
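CHO-K1 cells expressing human recombinant H2 receptor, 50 mM phosphate buffer pH 7.4; compounds incubated with 0.1 nM [125I]aminopotentidine for 120 min at 25 °C. Nonspecific binding defined with 3 μM tiotidine; specifically bound radioligand counted after filtration and washing.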

In test [3] the target is human dopamine D2L receptor (Homo sapiens, UniProt P14416). In words: Dopamine D2L radioligand binding ([3H]Spiperone). To be noted: compound at 1 μM. An excerpt: Non-specific binding was estimated in the presence of […] Haloperidol. Receptor proteins were filtered and washed, the filters were then counted to determine [^3H]Spiperone specifically bound. […] Biochemical assay results are presented as the percent inhibition of specific binding in Table 9.

Test [4] deals with T2, human recombinant serotonin (5-Hydroxytryptamine) 5-HT2A receptor (Homo sapiens, UniProt P28223).
T2 construct: expressed in transfected cells; host or cells: Chinese hamster ovary (CHO-K1) cells
Put plainly: Serotonin 5-HT2A radioligand binding ([3H]Ketanserin). The following applies: for inhibition at 1 µM: read-out: Inhibition of ligand binding, Serotonin 5-HT2A (percent inhibition of specific binding), compound at 1 μM. How it is done: Compounds of the invention were incubated with 0.5 nM [^3H]Ketanserin for 60 min. at 25° C. Non-specific binding was estimated in the presence of 1 μM Mianserin. Receptor proteins were filtered and washed, the filters were then counted to determine [^3H]Ketanserin specifically bound.

For test [5], the target named is T3, human recombinant serotonin (5-Hydroxytryptamine) 5-HT2C receptor (Homo sapiens, UniProt P28335).
T3 construct: expressed in transfected cells; host or cells: Chinese hamster ovary (CHO-K1) cells
T3 sequence (P28335 33-458): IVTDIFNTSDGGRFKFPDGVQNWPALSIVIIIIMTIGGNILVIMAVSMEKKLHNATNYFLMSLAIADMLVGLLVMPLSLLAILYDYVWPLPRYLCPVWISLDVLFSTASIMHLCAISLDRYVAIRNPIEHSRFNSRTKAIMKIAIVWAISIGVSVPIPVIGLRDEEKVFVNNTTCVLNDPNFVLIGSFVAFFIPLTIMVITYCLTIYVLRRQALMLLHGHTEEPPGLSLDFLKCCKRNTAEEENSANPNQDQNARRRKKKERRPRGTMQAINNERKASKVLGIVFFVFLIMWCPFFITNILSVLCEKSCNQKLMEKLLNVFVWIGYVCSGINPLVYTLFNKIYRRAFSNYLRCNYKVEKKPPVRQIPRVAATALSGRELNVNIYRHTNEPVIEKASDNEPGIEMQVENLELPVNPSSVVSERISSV
Put plainly: Serotonin 5-HT2C radioligand binding ([3H]Mesulergine). The following applies: read-out: Inhibition of ligand binding, Serotonin 5-HT2C (percent inhibition of specific binding); for inhibition at 1 µM: compound at 1 μM. In a few lines: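 Compounds tested at 1 μM or lower (1% DMSO vehicle) for displacement of 1 nM [3H]Mesulergine over 60 min at 25° C. Specific binding determined by filtration counting, with 1 μM Mianserin defining non-specific binding; values are percent inhibition.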

Test [6] concerns the target T4, human recombinant serotonin (5-Hydroxytryptamine) 5-HT6 receptor (Homo sapiens, UniProt P50406).
T4 construct: expressed in transfected cells; host or cells: human HeLa cells
In words: Serotonin 5-HT6 radioligand binding ([3H]LSD). The following applies: read-out: Inhibition of ligand binding, Serotonin 5-HT6 (percent inhibition of specific binding); for inhibition at 1 µM: compound at 1 μM. How it is done: Compounds of the invention were incubated with 1.5 nM [3H]Lysergic acid diethylamide (LSD) for 120 min. at 37° C. […] Receptor proteins were filtered and washed, the filters were then counted to determine [3H]LSD specifically bound. Compounds were screened at 1 μM or lower, using 1% DMSO as vehicle. Biochemical assay results are presented as the percent inhibition of specific binding in Table 10.

For test [7], the target named is human recombinant serotonin (5-Hydroxytryptamine) 5-HT7 receptor (Homo sapiens, UniProt P34969). In words: Serotonin 5-HT7 radioligand binding ([3H]LSD). To be noted: read-out: Inhibition of ligand binding, Serotonin 5-HT7 (percent inhibition of specific binding); for inhibition at 1 µM: compound at 1 μM. From the text:
Receptor proteins were filtered and washed, the filters were then counted to determine [^3H]LSD specifically bound.

[8] abbreviates: […] [3H]Spiperone, read-out: Inhibition of ligand binding, Dopamine D2L (percent inhibition of specific binding).
[9] abbreviates: percent inhibition of specific binding, read-out: Inhibition of ligand binding, Dopamine D2L.

This is an account of results in patent US8906925B2, “Pyrido[4,3-B]indoles containing rigid moieties” (Medivation Technologies, Inc., priority 2008, dated 2014).

Read-outs that look alike come from different tables or passages of the source.

As usually defined, the inhibition is the drop in the measured response relative to a control, in per cent.

T1 sequence (P25021 whole entry): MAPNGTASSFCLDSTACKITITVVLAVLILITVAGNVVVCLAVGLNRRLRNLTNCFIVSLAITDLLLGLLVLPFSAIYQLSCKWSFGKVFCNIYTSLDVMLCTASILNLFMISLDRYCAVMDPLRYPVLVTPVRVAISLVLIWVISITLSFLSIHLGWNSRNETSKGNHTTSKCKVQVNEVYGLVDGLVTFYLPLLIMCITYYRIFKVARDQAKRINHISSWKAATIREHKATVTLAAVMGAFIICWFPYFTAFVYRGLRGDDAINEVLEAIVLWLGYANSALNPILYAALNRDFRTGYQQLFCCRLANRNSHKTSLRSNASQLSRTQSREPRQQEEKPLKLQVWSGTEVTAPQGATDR
human dopamine D2L receptor, sequence (P14416 whole entry): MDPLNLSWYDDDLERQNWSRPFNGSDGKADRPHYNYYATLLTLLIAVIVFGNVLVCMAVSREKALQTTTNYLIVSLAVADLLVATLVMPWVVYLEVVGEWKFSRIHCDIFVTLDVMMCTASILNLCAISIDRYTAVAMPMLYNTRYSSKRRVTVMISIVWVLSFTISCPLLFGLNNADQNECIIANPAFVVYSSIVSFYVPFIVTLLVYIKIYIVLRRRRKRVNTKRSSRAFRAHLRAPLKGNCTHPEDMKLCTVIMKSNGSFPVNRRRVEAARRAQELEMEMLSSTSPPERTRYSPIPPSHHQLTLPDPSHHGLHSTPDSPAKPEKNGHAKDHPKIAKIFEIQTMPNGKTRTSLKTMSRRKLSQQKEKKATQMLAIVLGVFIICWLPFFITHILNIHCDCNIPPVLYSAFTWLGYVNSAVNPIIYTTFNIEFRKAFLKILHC
T2 sequence (P28223 whole entry): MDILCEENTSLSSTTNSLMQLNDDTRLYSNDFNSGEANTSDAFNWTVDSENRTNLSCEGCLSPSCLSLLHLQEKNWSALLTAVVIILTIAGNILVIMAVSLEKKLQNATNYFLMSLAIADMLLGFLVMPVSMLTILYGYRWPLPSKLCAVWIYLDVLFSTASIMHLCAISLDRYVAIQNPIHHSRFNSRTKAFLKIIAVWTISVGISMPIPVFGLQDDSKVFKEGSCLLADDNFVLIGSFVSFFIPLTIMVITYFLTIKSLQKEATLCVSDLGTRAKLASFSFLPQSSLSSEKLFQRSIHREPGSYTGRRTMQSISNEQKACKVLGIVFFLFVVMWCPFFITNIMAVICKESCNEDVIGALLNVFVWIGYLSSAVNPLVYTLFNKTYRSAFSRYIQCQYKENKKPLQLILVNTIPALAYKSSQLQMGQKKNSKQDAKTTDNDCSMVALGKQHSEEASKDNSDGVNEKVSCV
human recombinant serotonin (5-Hydroxytryptamine) 5-HT7 receptor, sequence (P34969 whole entry): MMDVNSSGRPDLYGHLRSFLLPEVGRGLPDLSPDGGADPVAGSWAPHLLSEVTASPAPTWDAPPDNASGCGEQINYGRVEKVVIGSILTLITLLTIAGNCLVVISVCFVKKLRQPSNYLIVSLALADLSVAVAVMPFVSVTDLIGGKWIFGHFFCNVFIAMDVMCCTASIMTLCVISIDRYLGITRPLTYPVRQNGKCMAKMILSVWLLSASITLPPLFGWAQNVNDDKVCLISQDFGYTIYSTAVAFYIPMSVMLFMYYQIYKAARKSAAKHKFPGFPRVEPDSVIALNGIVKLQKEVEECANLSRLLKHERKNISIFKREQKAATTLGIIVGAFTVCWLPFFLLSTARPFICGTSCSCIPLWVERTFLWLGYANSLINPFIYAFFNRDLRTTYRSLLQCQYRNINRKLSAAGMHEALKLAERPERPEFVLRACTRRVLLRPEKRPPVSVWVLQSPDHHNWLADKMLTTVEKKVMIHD
T4 sequence (P50406 whole entry): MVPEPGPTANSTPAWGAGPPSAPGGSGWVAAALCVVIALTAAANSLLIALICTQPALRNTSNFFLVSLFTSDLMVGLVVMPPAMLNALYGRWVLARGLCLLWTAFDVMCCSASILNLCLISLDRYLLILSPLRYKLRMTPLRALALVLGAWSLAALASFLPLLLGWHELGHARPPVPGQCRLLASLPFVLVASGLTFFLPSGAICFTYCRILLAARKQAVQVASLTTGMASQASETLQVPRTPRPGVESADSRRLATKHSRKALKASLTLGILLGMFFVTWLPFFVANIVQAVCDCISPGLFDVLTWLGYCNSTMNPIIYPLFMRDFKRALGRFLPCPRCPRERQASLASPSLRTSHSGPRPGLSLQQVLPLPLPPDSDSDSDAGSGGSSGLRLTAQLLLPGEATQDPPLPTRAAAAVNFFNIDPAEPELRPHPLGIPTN
histamine receptor H1, sequence (P35367 whole entry): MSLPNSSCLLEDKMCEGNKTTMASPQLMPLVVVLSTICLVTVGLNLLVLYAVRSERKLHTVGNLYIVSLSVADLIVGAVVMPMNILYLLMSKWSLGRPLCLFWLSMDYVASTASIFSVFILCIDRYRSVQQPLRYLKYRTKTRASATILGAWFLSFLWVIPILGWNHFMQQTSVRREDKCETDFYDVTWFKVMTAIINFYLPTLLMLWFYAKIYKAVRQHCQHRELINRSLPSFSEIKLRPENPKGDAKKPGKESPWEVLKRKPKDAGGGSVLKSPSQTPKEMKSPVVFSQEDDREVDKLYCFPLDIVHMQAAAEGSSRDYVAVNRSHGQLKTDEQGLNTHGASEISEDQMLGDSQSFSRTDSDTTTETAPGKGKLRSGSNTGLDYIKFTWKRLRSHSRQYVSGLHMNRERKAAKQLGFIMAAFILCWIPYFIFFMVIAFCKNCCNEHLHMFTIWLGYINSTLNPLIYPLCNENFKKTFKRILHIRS

As for `C=C(Cn1c2c(c3cc(C)ccc31)CN(C)CC2)c1ccc(O)cc1` [Compound No. 355, 4-(3-(2,8-dimethyl-3,4-dihydro-1H-pyrido[4,3-b]indol-5(2H)-yl)prop-1-en-2-yl)phenol], the inhibition at 1 µM in test [1] is 116%; in test [2] it was 93%; in test [3] (setting [8]), 81%; in test [4], 92%; in test [5] it was 99%; in test [6] it was 101%. For the same compound, the inhibition at 1 µM in test [7] turned out to be 92%.
On to `C/C(=C\n1c2c(c3ccc(C(F)(F)F)cc31)CN(C)CC2)c1ccc(F)cc1` [Compound 229, (E)-5-(2-(4-fluorophenyl)prop-1-enyl)-2-methyl-7-(trifluoromethyl)-2,3,4,5-tetrahydro-1H-pyrido[4,3-b]indole], for which the inhibition at 1 µM in test [1] was determined as 54%; in test [2] it was 96%; in test [3] (setting [9]), 100%; in test [4], 100%; in test [5], 100%; in test [6] it was 107%. For the same compound, the inhibition at 1 µM in test [7] amounted to 89%.
`C/C(=C\n1c2c(c3cc(Cl)ccc31)CN(C)CC2)c1ccc(F)c(F)c1` [Compound 98, (E)-8-chloro-5-(2-(3,4-difluorophenyl)prop-1-enyl)-2,3,4,5-tetrahydro-2-methyl-1H-pyrido[4,3-b]indole]: the inhibition at 1 µM was found to be 53% in test [1]; 99% in test [2]; 78% in test [3] (setting [9]); 95% in test [4]; 100% in test [5]; 100% in test [6]. Further, in test [7], the inhibition at 1 µM came to 94%.
`CN1CCc2c(c3ccc(Cl)cc3n2CC(C)(O)c2ccncc2)C1` (centres unmarked) [Compound 184, 1-(7-chloro-2-methyl-3,4-dihydro-1H-pyrido[4,3-b]indol-5(2H)-yl)-2-(pyridin-4-yl)propan-2-ol]: the inhibition at 1 µM was 23% in test [1]; 57% in test [2]; 1% in test [3] (setting [9]); 82% in test [4]; 65% in test [5]; 31% in test [6]. In test [7], the inhibition at 1 µM came out at 48%.
In the case of `C=C(Cn1c2c(c3cccc(F)c31)CN(C)CC2)c1ccc(F)cc1` [Compound No. 353, 6-fluoro-5-(2-(4-fluorophenyl)allyl)-2-methyl-2,3,4,5-tetrahydro-1H-pyrido[4,3-b]indole], the inhibition at 1 µM in test [1] was 100%; in test [2] it was 93%; in test [3] (setting [8]), 92%; in test [4], 98%; in test [5] it was 97%; in test [6], 100%. Also, in test [7], the inhibition at 1 µM was determined as 87%.
Turning to `C/C(=C/n1c2c(c3cc(C)ccc31)CN(C)CC2)c1ccc(Cl)c(Cl)c1` [Compound 247, (Z)-5-(2-(3,4-dichlorophenyl)prop-1-enyl)-2,8-dimethyl-2,3,4,5-tetrahydro-1H-pyrido[4,3-b]indole], the inhibition at 1 µM in test [1] was 75%; in test [2] it was 99%; in test [3] (setting [9]), 28%; in test [4] it was 101%; in test [5], 100%; in test [6], 103%. For the same compound, the inhibition at 1 µM in test [7] was determined as 101%.
For `C/C(=C\n1c2c(c3cc(F)ccc31)CN(C)CC2)c1ccncc1` [Compound 216, (E)-8-fluoro-2-methyl-5-(2-(pyridin-4-yl)prop-1-enyl)-2,3,4,5-tetrahydro-1H-pyrido[4,3-b]indole], the “Histamine Binding (1 μM) H1, percent inhibition of specific binding” value in test [1] (1 μM) was found to be 49%. For the same compound, the inhibition at 1 µM in test [1] turned out to be 47%; in test [2] it was 61%; in test [3] (setting [9]), 97%; in test [4], 99%; in test [5], 94%; in test [6], 104%. In addition, the inhibition at 1 µM in test [7] worked out at 79%. Also, the “Inhibition of ligand binding, Dopamine D2L” value in test [3] (percent inhibition of specific binding, 1 µM) is on record as 98%. Besides, the inhibition at 0.1 µM was determined as 98% in test [4] (read-out: Inhibition of ligand binding, Serotonin 5-HT2A (percent inhibition of specific binding), compound at 0.1 μM); 83% in test [5] (compound at 0.1 μM); 100% in test [6] (compound at 0.1 μM); 66% in test [7] (compound at 0.1 μM).
As for `C/C(=C\n1c2c(c3cc(Cl)ccc31)CN(C)CC2)c1ccccc1Cl` [Compound 238, (E)-8-chloro-5-(2-(2-chlorophenyl)prop-1-enyl)-2-methyl-2,3,4,5-tetrahydro-1H-pyrido[4,3-b]indole], the inhibition at 1 µM was found to be 58% in test [1]; 93% in test [2]; 81% in test [3] (setting [9]); 101% in test [4]; 99% in test [5]; 99% in test [6]. The inhibition at 1 µM in test [7] amounted to 98%.
On to `C/C(=C\n1c2c(c3ccc(Cl)cc31)CN(C)CC2)c1ccc(F)cc1` [Compound 228, (E)-7-chloro-5-(2-(4-fluorophenyl)prop-1-enyl)-2-methyl-2,3,4,5-tetrahydro-1H-pyrido[4,3-b]indole], for which the inhibition at 1 µM in test [1] came out at 66%; in test [2] it was 102%; in test [3] (setting [9]), 98%; in test [4], 101%; in test [5], 97%; in test [6] it was 106%. The inhibition at 1 µM in test [7] was found to be 97%.
`C/C(=C\n1c2c(c3cc(Cl)ccc31)CN(C)CC2)c1ccc(Cl)c(Cl)c1` [Compound 103, (E)-8-chloro-5-(2-(3,4-dichlorophenyl)prop-1-enyl)-2,3,4,5-tetrahydro-2-methyl-1H-pyrido[4,3-b]indole]: the inhibition at 1 µM was determined as 81% in test [1]; 101% in test [2]; 49% in test [3] (setting [9]); 101% in test [4]; 98% in test [5]; 89% in test [6]. In test [7], the inhibition at 1 µM is 90%.
Turning to `C/C(=C\n1c2c(c3cccc(Cl)c31)CN(C)CC2)c1ccncc1` [Compound 222, (E)-6-chloro-2-methyl-5-(2-(pyridin-4-yl)prop-1-enyl)-2,3,4,5-tetrahydro-1H-pyrido[4,3-b]indole], the inhibition at 1 µM amounted to 25% in test [1]; 91% in test [2]; 82% in test [3] (setting [9]); 100% in test [4]; 99% in test [5]; 102% in test [6]. Moreover, the inhibition at 1 µM in test [7] is 69%.
